From US20030134901A1, “Lipoxin compounds and their use in treating cell proliferative disorders” (priority 1993, published 2003) come the findings set out here.

For data set [1], the system named is PMA-treated HL-60 cells. The data set can be described thus: Lipoxin metabolism / bio-half-life assay with phorbol ester-treated HL-60 cells. As to conditions: at times up to two hours. Format: in vitro ADME, human. As for the experimental part:
HL-60 cells were purchased from American Type Culture Collection (Rockville, Md.), and other cell culture reagents were from GIBCO (Grand Island, N.Y.). Versene (EDTA) was from Whittaker Bioproducts (Walkersville, Md.). Synthetic 11,12-acetylenic LXA4 methyl ester and LXs were from Cascade Biochemical (Reading, U.K.). 15(S)-15-m-PGE1, PGE1, and 5-HETE were from Cayman Chemical Co. (Ann Arbor, Mich.). [11,12-^3H]LXA4 was prepared from 11,12-acetylenic LXA4 using Lindlar catalyst as a custom tritiation (NET-259, lot 0 2793-275, New England Nuclear, Boston, Mass.). Tritiated products were isolated using RP-HPLC (Fiore et al. (1992) J. Biol. Chem. 267:16168; Serhan, C. N. (1990) Meth. Enzymol. 187:167). Methoxyamine and NAD were from Sigma Chemical Company (St. Louis, Mo.). Manganese dioxide and Adams reagent were from Aldrich Chemical Co. (Milwaukee, Wis.).
Human PMN were obtained from healthy volunteers by gradient centrifugation of heparinized fresh venous blood (Böyum, A. ([…]) Scand. J. Clin. Lab. Invest. 21:77). HL-60 cells were seeded in RPMI supplemented with penicillin (100 U/ml), streptomycin (100 μ/ml), fetal bovine serum (10%) (Hyclone, Logan, Utah) and incubated (37° C. with 5% CO2 atmosphere) in plastic 250 ml flasks. Individual flasks containing […] HL-60 cells/ml were incubated in the presence or absence of phorbol 12-myristate 13-acetate (PMA) (10 or 16 nM, 24-27 h) and adherence was monitored for induction of macrophage-like phenotype as in Collins, S. J. (1987) Blood 70:1233. […]
Incubations with eicosanoids were stopped with cold methanol containing either PGB2 or 5-HETE as internal standards (5-HETE was used when 15-oxo-ETE was quantified). […] Formation of 15-oxo-ETE by 100,000 g supernatants (cf. Agins, A. P. et al. (1987) Agents Actions 21:397; Xun, C-Q. et al.(1991) Biochem. J. 279:553; and Sok, D-E. et al. (1988) Biochem. Biophys. Res. Commun. 156:524) was quantified after RP-HPLC using an ODS column (4.6 mm×25 cm) eluted with methanol/H2O/acetic acid (70:30:0.01, v/v/v) monitored at 280 nm with a flow rate of 1 ml/min. […] On-line spectra were recorded using a diode array detector (Hewlett-Packard 1040M series II) equipped with HPLC^3D ChemStation software (DOS series). […]
The “bio-half-life” of compounds 1-8 was assessed using phorbol ester-treated human promyelocytic leukemia (HL-60) cells as described in Example 2. […]

Data set [2] deals with neutrophil adhesion to endothelial cells. The data set can be described thus: Neutrophil adhesion assay. Format: cell-based. The note with it: read-out: IC50, PMN adhesion triggered by LTB4 to human endothelial cells; triggered by leukotriene B4. As for the experimental part: Several of the preferred LX analogs (shown structurally as compounds 1 through 8 above) were prepared by total synthesis as described in Example 1. Following preparation and isolation of these compounds via HPLC, compounds were first assessed to determine whether they retain biological activity using the neutrophil adhesion assay and epithelial cell transmigration assays (as described in Nash, S et al., (1987) J. Clin. Invest. 80:1104-1113; Nash, S et al., (1991) J. Clin. Invest. 87: 1474-1477; Parkos, C. A. et al., (1991) J. Clin. Invest. 88:1605-1612; Parkos, C. A. et al. (1992) J. Cell. Biol. 117:757-764; Madara J. L. et al., (1992) J. Tiss. Cult. Meth. 14:209-216).

Molecules are shown by their SMILES.

In the case of `CCCCCC(C)(O)C=CC=CC=CC=CC(O)C(O)CCCC(=O)O` (centres unmarked) [compound 2, 15-methyl-LXA4], in data set [1], the “recovery in the incubation medium (bio-half-life)” value is “quantitatively recovered”. Besides, in data set [2], the IC50 was about 1 nM.
